Measurements: US12077503B2, “Substituted cyclic amides and their use as herbicides” (FMC CORPORATION, priority 2015, dated 2024)

Columns and labels:
Test in all cases: Test C preemergence
Format in all cases: in vivo
[1] = tested on: Galium (catchweed bedstraw, Galium aparine); conditions: for Plant response rating, Galium: scale 0 to 100, 0 no effect, 100 complete control
Method in brief: (§1)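 Preemergence application to seeds in loam/sand soil, or foliar (postemergence) application to plants 2–18 cm tall in peat moss/vermiculite medium; surfactant-containing non-phytotoxic solvent vehicle; greenhouse. Visual injury vs controls at 13–15 d; 0 = no effect, 100 = complete control.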

[2] = tested on: barnyardgrass (Echinochloa crus-galli); conditions: for Plant response rating, Barnyardgrass: scale 0 to 100, 0 no effect, 100 complete control
Method in brief: as §1

[3] = tested on: blackgrass (Alopecurus myosuroides); conditions: for Plant response rating, Blackgrass: scale 0 to 100, 0 no effect, 100 complete control
Method in brief: as §1

corn (Zea mays) = conditions: for Plant response rating, Corn: scale 0 to 100, 0 no effect, 100 complete control
Method in brief: as §1

[4] = tested on: crabgrass, large (large crabgrass, Digitaria sanguinalis); conditions: for Plant response rating, Crabgrass, Large: scale 0 to 100, 0 no effect, 100 complete control
Method in brief: as §1

[5] = tested on: foxtail, giant (giant foxtail, Setaria faberii); conditions: for Plant response rating, Foxtail, Giant: scale 0 to 100, 0 no effect, 100 complete control
Method in brief: as §1

[6] = tested on: johnsongrass (Sorghum halepense); conditions: for Plant response rating, Johnsongrass: scale 0 to 100, 0 no effect, 100 complete control
Method in brief: as §1

[7] = tested on: lambsquarters (Chenopodium album); conditions: for Plant response rating, Lambsquarters: scale 0 to 100, 0 no effect, 100 complete control
Method in brief: as §1

[8] = tested on: morningglory (Ipomoea coccinea); conditions: for Plant response rating, Morningglory: scale 0 to 100, 0 no effect, 100 complete control
Method in brief: as §1

[9] = tested on: nutsedge, yellow (yellow nutsedge, Cyperus esculentus); conditions: for Plant response rating, Nutsedge, Yellow: scale 0 to 100, 0 no effect, 100 complete control
Method in brief: as §1

[10] = tested on: oilseed rape (Brassica napus); conditions: for Plant response rating, Oilseed Rape: scale 0 to 100, 0 no effect, 100 complete control
Method in brief: as §1

[11] = tested on: pigweed (Amaranthus retroflexus); conditions: for Plant response rating, Pigweed: scale 0 to 100, 0 no effect, 100 complete control
Method in brief: as §1

[12] = tested on: ragweed (common ragweed, Ambrosia elatior); conditions: for Plant response rating, Ragweed: scale 0 to 100, 0 no effect, 100 complete control
Method in brief: as §1

[13] = tested on: ryegrass, Italian (Italian ryegrass, Lolium multiflorum); conditions: for Plant response rating, Ryegrass, Italian: scale 0 to 100, 0 no effect, 100 complete control
Method in brief: as §1

soybean (Glycine max) = conditions: scale 0 to 100, 0 no effect, 100 complete control
Method in brief: as §1

[14] = tested on: velvetleaf (Abutilon theophrasti); conditions: for Plant response rating, Velvetleaf: scale 0 to 100, 0 no effect, 100 complete control
Method in brief: as §1

[15] = tested on: waterhemp (common waterhemp, Amaranthus rudis); conditions: for Plant response rating, Waterhemp: scale 0 to 100, 0 no effect, 100 complete control
Method in brief: as §1

[16] = tested on: wheat (winter wheat, Triticum aestivum); conditions: for Plant response rating, Wheat: scale 0 to 100, 0 no effect, 100 complete control
Method in brief: as §1

[17] = 31 g ai/ha, 0 is no effect, 100 is complete control

CC(C)Oc1cccc(C2CN(C)C(=O)C2C(=O)Nc2ccccc2S(C)(=O)=O)c1 (stereo not shown) [Compound 653]
Plant response rating (scale of 0 to 100), Galium [1, 17]: 0 | Plant response rating, Galium ([1]; 62 g ai/ha): 100 | Plant response rating, Galium ([1]; 125 g ai/ha): 30 | Plant response rating, Galium ([1]; 250 g ai/ha): 40 | Plant response rating (scale of 0 to 100), Barnyardgrass [2, 17]: 20 | Plant response rating, Barnyardgrass ([2]; 62 g ai/ha): 55 | Plant response rating, Barnyardgrass ([2]; 125 g ai/ha): 80 | Plant response rating, Barnyardgrass ([2]; 250 g ai/ha): 90 | Plant response rating (scale of 0 to 100), Blackgrass [3, 17]: 0 | Plant response rating, Blackgrass ([3]; 62 g ai/ha): 15 | Plant response rating, Blackgrass ([3]; 125 g ai/ha): 60 | Plant response rating, Blackgrass ([3]; 250 g ai/ha): 90 | Plant response rating (scale of 0 to 100), Corn (corn (Zea mays); [17]): 0 | Plant response rating, Corn (corn (Zea mays); 62 g ai/ha): 0 | Plant response rating, Corn (corn (Zea mays); 125 g ai/ha): 0 | Plant response rating, Corn (corn (Zea mays); 250 g ai/ha): 20 | Plant response rating (scale of 0 to 100), Crabgrass, Large [4, 17]: 90 | Plant response rating, Crabgrass, Large ([4]; 62 g ai/ha): 95 | Plant response rating, Crabgrass, Large ([4]; 125 g ai/ha): 100 | Plant response rating, Crabgrass, Large ([4]; 250 g ai/ha): 100 | Plant response rating (scale of 0 to 100), Foxtail, Giant [5, 17]: 85 | Plant response rating, Foxtail, Giant ([5]; 62 g ai/ha): 95 | Plant response rating, Foxtail, Giant ([5]; 125 g ai/ha): 95 | Plant response rating, Foxtail, Giant ([5]; 250 g ai/ha): 100 | Plant response rating (scale of 0 to 100), Johnsongrass [6, 17]: 0 | Plant response rating, Johnsongrass ([6]; 62 g ai/ha): 0 | Plant response rating, Johnsongrass ([6]; 125 g ai/ha): 40 | Plant response rating, Johnsongrass ([6]; 250 g ai/ha): 55 | Plant response rating (scale of 0 to 100), Lambsquarters [7, 17]: 15 | Plant response rating, Lambsquarters ([7]; 62 g ai/ha): 35 | Plant response rating, Lambsquarters ([7]; 125 g ai/ha): 50 | Plant response rating, Lambsquarters ([7]; 250 g ai/ha): 60 | Plant response rating (scale of 0 to 100), Morningglory [8, 17]: 0 | Plant response rating, Morningglory ([8]; 62 g ai/ha): 0 | Plant response rating, Morningglory ([8]; 125 g ai/ha): 0 | Plant response rating, Morningglory ([8]; 250 g ai/ha): 0 | Plant response rating (scale of 0 to 100), Nutsedge, Yellow [9, 17]: 0 | Plant response rating, Nutsedge, Yellow ([9]; 62 g ai/ha): 0 | Plant response rating, Nutsedge, Yellow ([9]; 125 g ai/ha): 0 | Plant response rating, Nutsedge, Yellow ([9]; 250 g ai/ha): 25 | Plant response rating (scale of 0 to 100), Oilseed Rape [10, 17]: 0 | Plant response rating, Oilseed Rape ([10]; 62 g ai/ha): 0 | Plant response rating, Oilseed Rape ([10]; 125 g ai/ha): 30 | Plant response rating, Oilseed Rape ([10]; 250 g ai/ha): 85 | Plant response rating (scale of 0 to 100), Pigweed [11, 17]: 30 | Plant response rating, Pigweed ([11]; 62 g ai/ha): 20 | Plant response rating, Pigweed ([11]; 125 g ai/ha): 50 | Plant response rating, Pigweed ([11]; 250 g ai/ha): 85 | Plant response rating (scale of 0 to 100), Ragweed [12, 17]: 0 | Plant response rating, Ragweed ([12]; 62 g ai/ha): 5 | Plant response rating, Ragweed ([12]; 125 g ai/ha): 35 | Plant response rating, Ragweed ([12]; 250 g ai/ha): 60 | Plant response rating (scale of 0 to 100), Ryegrass, Italian [13, 17]: 0 | Plant response rating, Ryegrass, Italian ([13]; 62 g ai/ha): 10 | Plant response rating, Ryegrass, Italian ([13]; 125 g ai/ha): 20 | Plant response rating, Ryegrass, Italian ([13]; 250 g ai/ha): 25 | Plant response rating, Soybean (soybean (Glycine max); 125 g ai/ha): 5 | Plant response rating, Soybean (soybean (Glycine max); 250 g ai/ha): 40 | Plant response rating (scale of 0 to 100), Velvetleaf [14, 17]: 0 | Plant response rating, Velvetleaf ([14]; 62 g ai/ha): 25 | Plant response rating, Velvetleaf ([14]; 125 g ai/ha): 35 | Plant response rating, Velvetleaf ([14]; 250 g ai/ha): 50 | Plant response rating (scale of 0 to 100), Waterhemp [15, 17]: 35 | Plant response rating, Waterhemp ([15]; 62 g ai/ha): 30 | Plant response rating, Waterhemp ([15]; 125 g ai/ha): 50 | Plant response rating, Waterhemp ([15]; 250 g ai/ha): 80 | Plant response rating (scale of 0 to 100), Wheat [16, 17]: 0 | Plant response rating, Wheat ([16]; 62 g ai/ha): 0 | Plant response rating, Wheat ([16]; 125 g ai/ha): 0 | Plant response rating, Wheat ([16]; 250 g ai/ha): 40
